Blank lines part the entries; values can stand above or below the compound they belong to.
How the values were obtained:
[1] = molecular target: T1, human Nluc‐A1AR (Homo sapiens, UniProt P30542); test: Fluorescent agonist saturation binding in presence/absence of allosteric modulator (NanoBRET); parameters: expressed in transfected cells; key to B max: Bmax expressed as BRET ratio from saturation fit; details: Human Nluc A1R
T1 sequence (P30542 2-326 limits assumed): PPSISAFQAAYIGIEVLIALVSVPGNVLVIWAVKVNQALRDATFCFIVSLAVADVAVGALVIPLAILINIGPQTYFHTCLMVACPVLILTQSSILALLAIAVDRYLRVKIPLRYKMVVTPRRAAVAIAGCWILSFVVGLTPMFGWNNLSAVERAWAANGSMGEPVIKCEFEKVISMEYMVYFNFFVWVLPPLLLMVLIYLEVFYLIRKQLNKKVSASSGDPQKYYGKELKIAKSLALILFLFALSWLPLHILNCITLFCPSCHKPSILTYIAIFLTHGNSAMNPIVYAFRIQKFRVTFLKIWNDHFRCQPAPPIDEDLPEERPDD
From the text: (§1) Pooled fluorescent agonist saturation assays obtained in the presence and absence of a fixed concentration of allosteric modulator were simultaneously fitted to the following equation: BRET ratio=Bmax×B/B+KD+M×B+C.

[2] = molecular target: T2, rat Nluc‐A1AR (Rattus norvegicus, UniProt P25099); test: as above; parameters: expressed in transfected cells; key to B max: Bmax expressed as BRET ratio from saturation fit; details: Rat Nluc A1R
T2 sequence (P25099 2-326 limits assumed): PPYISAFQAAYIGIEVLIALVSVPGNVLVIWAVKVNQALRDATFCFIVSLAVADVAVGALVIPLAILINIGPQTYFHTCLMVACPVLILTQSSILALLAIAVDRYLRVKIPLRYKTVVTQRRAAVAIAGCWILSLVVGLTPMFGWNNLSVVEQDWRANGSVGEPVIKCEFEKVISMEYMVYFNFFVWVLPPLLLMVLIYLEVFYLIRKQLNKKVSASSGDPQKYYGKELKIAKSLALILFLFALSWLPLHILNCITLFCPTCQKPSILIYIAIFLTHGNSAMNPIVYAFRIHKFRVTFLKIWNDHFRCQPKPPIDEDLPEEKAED
From the text: as §1

[3] = molecular target: T1, human Nluc‐A1AR; test: cell-based
Method: (§2) The fluorescent antagonist saturation, competition‐binding, allosteric modulator binding cooperativity, and the fluorescent agonist saturations in the presence/absence of allosteric modulator assays were performed on the stably transfected HEK293T cells expressing human or rat Nluc‐A1R. The cells were seeded 24 hr before experimentation in white walled, poly‐D‐lysine coated 96‐well microplates (Thermo Scientific, Loughborough, UK) at a density of 25,000 cells per well.
(§3) For each experiment, ligands were added simultaneously, and the 96‐well plate was incubated for 1 hr at 37°C (no CO2). Following this, the Nluc substrate furimazine (Promega) was added to give a final concentration of 10 μM and then incubated for 5 min at 37°C. For all experiments, the luminescence and resulting BRET were measured using the PHERAstar FS plate reader (BMG Labtech) using filtered light emissions at 460 nm (80 nm bandpass) and >610 nm (longpass) at room temperature. The raw BRET ratio was calculated by dividing the >610 nm emission by the 460 nm emission.

[4] = molecular target: T2, rat Nluc‐A1AR; test: cell-based; details: agonist pIC50, Rat, 25 nM CA200645
Method: as §2, §3

[5] = molecular target: T1, human Nluc‐A1AR; test: NanoBRET competition binding: inhibition of specific binding of CA200645; parameters: expressed in transfected cells; details: for IC50: Nluc‐human A1AR, 25 nM CA200645, HEK293T cells; for Ki: read-out: pK i ± SEM (converted); for concentrations producing a small direct inhibition of CA200645 binding: more evident at the human A1‐receptor
From the text: The IC50 values from competition‐binding curves were used to calculate the K i of the unlabelled ligands using the Cheng–Prusoff equation: Ki=IC50/1+L/KD, where [L] is the concentration of fluorescent ligand in nM, and K D is the dissociation constant of the fluorescent ligand in nM. The K D values used were obtained from the saturation‐binding experiments.

[6] = molecular target: T2, rat Nluc‐A1AR; test: as above
Method: as §2, §3

[7] = system: human A1‐receptors; parameters: method as in May et al., 2010; details: PD 81,723 10 μM, CHO cells; ref May et al., 2010; cited from earlier work
[8] = VCP171 0 (control), maximal specific binding (BRET ratio fit)

B max ([1]; PD 81,723 0 (control)): 0.019 ± 0.002 | Kd ([1]; VCP171 0 (control)): 589 nM | B max [1, 8]: 0.019 ± 0.002 | B max ([1]; with 10 μM PD 81,723): 0.035 ± 0.005 | B max ([1]; with 10 μM VCP171): 0.033 ± 0.004 | B max ([1]; with 30 μM PD 81,723): 0.035 ± 0.008 | B max ([1]; with 30 μM VCP171): 0.036 ± 0.003 | B max ([2]; PD 81,723 0 (control)): 0.031 ± 0.002 | Kd ([2]; PD 81,723 0 (control)): 955 nM | Kd ([2]; VCP171 0 (control)): 891 nM | B max [2, 8]: 0.031 ± 0.014 | B max ([2]; with 10 μM PD 81,723): 0.040 ± 0.005 | B max ([2]; with 10 μM VCP171): 0.048 ± 0.009 | B max ([2]; with 30 μM PD 81,723): 0.054 ± 0.007 | B max ([2]; with 30 μM VCP171): 0.072 ± 0.021
Structure (SMILES): O=C(CCCCCNC(=O)COc1ccc(/C=C/C2=[N+]3C(=Cc4ccc(-c5cccs5)n4[B-]3(F)F)C=C2)cc1)NCCCCNc1ncnc2c1ncn2[C@@H]1O[C@H](CO)[C@@H](O)[C@H]1O [ABA‐X‐BY630]

B max ([1]; PD 81,723 0 (control)): 0.007 ± 0.001 | Kd ([1]; PD 81,723 0 (control)): 977 nM | Kd ([1]; VCP171 0 (control)): 1020 nM | B max [1, 8]: 0.006 ± 0.001 | B max ([1]; with 10 μM PD 81,723): 0.012 ± 0.003 | B max ([1]; with 10 μM VCP171): 0.013 ± 0.002 | B max ([1]; with 30 μM PD 81,723): 0.016 ± 0.004 | B max ([1]; with 30 μM VCP171): 0.016 ± 0.002 | B max ([2]; PD 81,723 0 (control)): 0.015 ± 0.002 | Kd ([2]; PD 81,723 0 (control)): 1820 nM | Kd ([2]; VCP171 0 (control)): 891 nM | B max [2, 8]: 0.010 ± 0.001 | B max ([2]; with 10 μM PD 81,723): 0.018 ± 0.002 | B max ([2]; with 10 μM VCP171): 0.021 ± 0.002 | B max ([2]; with 30 μM PD 81,723): 0.032 ± 0.01 | B max ([2]; with 30 μM VCP171): 0.026 ± 0.003
Structure (SMILES): CCNC(=O)[C@H]1O[C@@H](n2cnc3c(NCCCCNC(=O)CCCCCNC(=O)COc4ccc(/C=C/C5=[N+]6C(=Cc7ccc(-c8cccs8)n7[B-]6(F)F)C=C5)cc4)ncnc32)[C@H](O)[C@@H]1O [ABEA‐X‐BY630]

IC50 [3]: 282 nM | IC50 ([4]; PD 81,723 0 (control)): 275 nM | IC50 ([4]; VCP171 0 (control)): 251 nM | IC50 [5]: 245 nM | Ki [5]: 141 nM | IC50 [6]: 186 nM | Ki [6]: 102 nM
Structure (SMILES): N#Cc1c(N)nc(SCc2csc(-c3ccc(Cl)cc3)n2)c(C#N)c1-c1ccc(OCCO)cc1 [Capadenoson, 2‐amino‐6‐[[2‐(4‐chlorophenyl)‐1,3‐thiazol‐4‐yl]methylsulfanyl]‐4‐[4‐(2‐hydroxyethoxy)phenyl]pyridine‐3,5‐dicarbonitrile]

IC50 [6]: 1950 nM | Ki [6]: 1070 nM
Structure (SMILES): O=C(Cc1ccccc1)Nc1nc2ccc(Cl)cc2c2nc(-c3ccco3)nn12 [MRS1220, N‐[9‐chloro‐2‐(furan‐2‐yl)‐[1,2,4]triazolo[1,5‐c]quinazolin‐5‐yl]‐2‐phenylacetamide]

concentrations producing a small direct inhibition of CA200645 binding [5]: > 100 µM | IC50 [6]: > 100000 nM
Structure (SMILES): Cc1sc(N)c(C(=O)c2cccc(C(F)(F)F)c2)c1C [PD 81,723, (2‐amino‐4,5‐dimethylthiophen‐3‐yl)(3‐(trifluoromethyl)phenyl)methanone]
effect on dissociation of BY630‐ABA [7]: slow the dissociation

IC50 [5]: 40700 nM | concentrations producing a small direct inhibition of CA200645 binding [5]: 10 to 100 µM | Ki [5]: 23400 nM | IC50 [6]: 129000 nM | Ki [6]: 70800 nM
Structure (SMILES): Nc1scc(-c2cccc(C(F)(F)F)c2)c1C(=O)c1ccccc1 [VCP171, (2‐amino‐4‐(3‐(trifluoromethyl)phenyl)thiophen‐3‐yl)(phenyl)methanone]

IC50 [6]: 17400 nM | Ki [6]: 9550 nM
Structure (SMILES): Nc1sc(-c2ccc(C(=O)NCCCCCCNc3ncnc4c3ncn4[C@@H]3O[C@H](CO)[C@@H](O)[C@H]3O)cc2)c(-c2cccc(C(F)(F)F)c2)c1C(=O)c1ccccc1 [VCP746, 4‐(5‐amino‐4‐benzoyl‐3‐(3‐(trifluoromethyl)phenyl)thiophen‐2‐yl)‐N‐(6‐(9‐((2R,3R,4S,5R)‐3,4‐dihydroxy‐5‐(hydroxylmethyl)tetrahydro‐furan‐2‐yl)‐9H‐purin‐6‐ylamino)hexyl)benzamide]

From article PMC6433648 (British Journal of Pharmacology, 2019)
